Drawing on patent US11999727B2 (Tango Therapeutics, Inc., priority 2020, dated 2024), this text covers IC50 and MTAP intact/deleted ratio for 18 compounds.

The target in assay [1] is T1, PRMT5 (Homo sapiens, UniProt O14744).
T1 construct: purchased Viva (custom protein)
Briefly: PRMT5 biochemical IC50 assay with SAM as cofactor. The note with it: PRMT5, SAM as cofactor; read-out: SAM IC50.

Assay [2] concerns the target T1, PRMT5. In words: PRMT5 biochemical IC50 assay with no cofactor. The note with it: PRMT5, no cofactor; read-out: No Cofactor/rel IC50. The source says: Table 1 indicates IC50 values (μM) against PRMT5 for exemplary compounds in the presence of SAM as cofactor, with no cofactor, and with MTA as cofactor, respectively (columns 4-6). […] Ki values can be calculated from the IC50 values as described in the Examples section. As detailed in the Examples section, for the assay performed in the presence of SAM, IC50=Ki×1.5 (Ki=IC50/1.5).

Assay [3] concerns the target T1, PRMT5. Briefly: PRMT5 biochemical IC50 assay with MTA as cofactor. The note with it: PRMT5, MTA as cofactor; read-out: MTA IC50.
In assay [4] the test system is HAP1 MTAP-intact cell line. In words: SDMA in-cell western assay, HAP1 MTAP-intact. In kind it is cell-based. The note with it: Homo sapiens, HAP1, SDMA in-cell western, HAP1 MTAP-intact; read-out: MTAP HAP1 intact IC50. The method, boiled down: (§1)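 Readout: in-cell western detection of SDMA. Cells: HAP1 expressing endogenous MTAP and an MTAP-null HAP1 counterpart. Output: IC50.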

Assay [5] deals with HAP1 MTAP-deleted cell line. In words: SDMA in-cell western assay, HAP1 MTAP-deleted. It counts as cell-based. The following applies: for IC50: Homo sapiens, HAP1, SDMA in-cell western, HAP1 MTAP-deleted, read-out: HAP1 MTAP deleted IC50; for MTAP intact/deleted ratio: IC50 ratio HAP1 MTAP-intact / HAP1 MTAP-deleted, SDMA in-cell western. The gist of the method: as §1
Assay [6] relates to HAP1 MTAP-deleted cell line. In words: Viability assay, MTAP-deleted cell line. It counts as cell-based. The note with it: Homo sapiens, HAP1, viability assay, HAP1 MTAP-deleted; read-out: HAP1 MTAP deleted viability. The source says:
Table 1 additionally indicates IC50 values in a viability assay for the MTAP-deleted cell line (column 10), indicating the effect of treatment with compound on cell survival.

T1 sequence (O14744 whole entry): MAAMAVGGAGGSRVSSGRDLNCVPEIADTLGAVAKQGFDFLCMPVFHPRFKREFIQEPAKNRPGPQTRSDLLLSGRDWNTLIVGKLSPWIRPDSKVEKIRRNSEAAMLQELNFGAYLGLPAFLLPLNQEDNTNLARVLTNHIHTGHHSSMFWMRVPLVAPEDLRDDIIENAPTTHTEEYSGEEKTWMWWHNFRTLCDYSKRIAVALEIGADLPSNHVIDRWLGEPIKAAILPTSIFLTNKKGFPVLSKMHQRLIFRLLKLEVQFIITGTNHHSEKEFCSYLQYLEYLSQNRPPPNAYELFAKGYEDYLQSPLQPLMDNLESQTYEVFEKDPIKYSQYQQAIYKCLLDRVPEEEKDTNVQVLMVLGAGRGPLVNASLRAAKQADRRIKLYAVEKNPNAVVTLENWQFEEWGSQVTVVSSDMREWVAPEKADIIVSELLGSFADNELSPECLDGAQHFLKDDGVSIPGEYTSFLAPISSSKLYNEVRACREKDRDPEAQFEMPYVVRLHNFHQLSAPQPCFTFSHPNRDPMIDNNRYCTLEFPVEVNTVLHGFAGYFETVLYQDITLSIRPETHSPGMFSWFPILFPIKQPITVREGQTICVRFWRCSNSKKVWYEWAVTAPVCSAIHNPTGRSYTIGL
T1 sequence (Q9BQA1 whole entry partner): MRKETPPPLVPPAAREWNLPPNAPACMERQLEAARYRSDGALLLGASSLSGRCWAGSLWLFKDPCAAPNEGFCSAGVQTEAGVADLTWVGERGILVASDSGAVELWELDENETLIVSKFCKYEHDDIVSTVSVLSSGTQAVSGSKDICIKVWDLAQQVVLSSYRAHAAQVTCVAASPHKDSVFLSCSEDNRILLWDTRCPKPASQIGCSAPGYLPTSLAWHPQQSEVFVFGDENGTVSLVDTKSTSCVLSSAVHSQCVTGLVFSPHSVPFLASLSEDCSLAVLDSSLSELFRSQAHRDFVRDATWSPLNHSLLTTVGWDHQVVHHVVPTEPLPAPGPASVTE

On to `C[C@@H]1CC[C@@H](c2ccc(C(N)=O)s2)N(C(=O)C(=O)Nc2cncc(C(N)=O)c2)C1` (single isomer, unassigned) [Compound 792], for which the IC50 on PRMT5 [1] was 50 to 500 nM; at PRMT5 [2], below 50 nM; at PRMT5 [3] it was below 50 nM; in assay [4] it was above 1000 nM; in assay [5], below 100 nM; in assay [6] it was 1000 to 10000 nM. The MTAP intact/deleted ratio result in assay [5] is “A (an IC50 ratio greater than or equal to 10 fold)”.

Turning to `COc1ncc(NC(=O)C(=O)N2C[C@H](C)CC[C@H]2c2ccc3[nH]cnc3c2)cc1C(N)=O` (single isomer, unassigned) [Compound 794], the IC50 was 50 to 500 nM at PRMT5 [1]; below 50 nM on PRMT5 [2]; below 50 nM at PRMT5 [3]; above 1000 nM in assay [4]; below 100 nM in assay [5]; below 1000 nM in assay [6]. In addition, the MTAP intact/deleted ratio result in assay [5] was “A (an IC50 ratio greater than or equal to 10 fold)”.

On to `C[C@@]1(F)CC[C@H](c2ccccc2)N(C(=O)C(=O)Nc2cncc(C(N)=O)c2)C1` (single isomer, unassigned) [Compound 795, 5-(2-(5-fluoro-5-methyl-2-phenylpiperidin-1-yl)-2-oxoacetamido)nicotinamide], for which the IC50 on PRMT5 [1] is 50 to 500 nM; at PRMT5 [2], 50 to 500 nM; at PRMT5 [3] it was below 50 nM; in assay [4], above 1000 nM; in assay [5], below 100 nM; in assay [6], 1000 to 10000 nM. Also, the MTAP intact/deleted ratio result in assay [5] is recorded as “A (an IC50 ratio greater than or equal to 10 fold)”.

For `C[C@H]1CC[C@H](c2ccc(C(N)=O)s2)N(C(=O)C(=O)Nc2cncc(C(N)=O)c2)C1` (single isomer, unassigned) [Compound 796], the IC50 on PRMT5 [1] is above 500 nM; on PRMT5 [2], above 500 nM; on PRMT5 [3], above 500 nM; in assay [4], above 1000 nM; in assay [5], above 1000 nM; in assay [6] it was above 10000 nM. In assay [5], the MTAP intact/deleted ratio result was “C (an IC50 ratio of less than 3 fold)”.

For the compound `COc1ncc(NC(=O)C(=O)N2C[C@@H](C)CC[C@@H]2c2ccc3sc(C)nc3c2)cc1C(N)=O` (single isomer, unassigned) [Compound 797], the IC50 on PRMT5 [1] is 50 to 500 nM; on PRMT5 [2] it was below 50 nM; at PRMT5 [3] it was below 50 nM; in assay [4] it was above 1000 nM; in assay [5], below 100 nM; in assay [6], below 1000 nM. Moreover, the MTAP intact/deleted ratio result in assay [5] is reported as “A (an IC50 ratio greater than or equal to 10 fold)”.

As for `C[C@]1(F)CC[C@@H](c2ccccc2)N(C(=O)C(=O)Nc2cncc(C(N)=O)c2)C1` (single isomer, unassigned) [Compound 798, 5-(2-(5-fluoro-5-methyl-2-phenylpiperidin-1-yl)-2-oxoacetamido)nicotinamide], the IC50 was above 500 nM on PRMT5 [1]; above 500 nM at PRMT5 [2]; above 500 nM at PRMT5 [3]; above 1000 nM in assay [4]; above 1000 nM in assay [5]; above 10000 nM in assay [6]. Moreover, the MTAP intact/deleted ratio result in assay [5] was “C (an IC50 ratio of less than 3 fold)”.

For the compound `COc1ncc(NC(=O)C(=O)N2C[C@H](C)CC[C@H]2c2ccc(-c3nccs3)cc2)cc1C(N)=O` (single isomer, unassigned) [Compound 799], the IC50 was above 500 nM at PRMT5 [1]; above 500 nM at PRMT5 [2]; above 500 nM at PRMT5 [3]; above 1000 nM in assay [4]; above 1000 nM in assay [5]; above 10000 nM in assay [6]. Moreover, the MTAP intact/deleted ratio result in assay [5] is recorded as “C (an IC50 ratio of less than 3 fold)”.

`CCc1cc(NC(=O)C(=O)N2C[C@@H](C)CC[C@@H]2c2ccc3sc(C)nc3c2)cnc1N` (single isomer, unassigned) [Compound 800]: the IC50 was 50 to 500 nM at PRMT5 [1]; below 50 nM on PRMT5 [2]; below 50 nM at PRMT5 [3]; 100 to 1000 nM in assay [4]; below 100 nM in assay [5]; below 1000 nM in assay [6]. Also, the MTAP intact/deleted ratio result in assay [5] was “A (an IC50 ratio greater than or equal to 10 fold)”.

Turning to `CCc1cc(NC(=O)C(=O)N2C[C@H](C)CC[C@H]2c2ccc3sc(C)nc3c2)cnc1N` (single isomer, unassigned) [Compound 801], the IC50 on PRMT5 [1] was above 500 nM; on PRMT5 [2] it was above 500 nM; at PRMT5 [3], above 500 nM; in assay [4], above 1000 nM; in assay [5] it was above 1000 nM; in assay [6] it was above 10000 nM. Also, the MTAP intact/deleted ratio result in assay [5] is “B (an IC50 ratio greater than or equal to 3 fold but lower than 10 fold)”.

For `Cc1cc(NC(=O)C(=O)N2C[C@H](C)CC[C@H]2c2ccc(CO)cc2)cnc1N` (single isomer, unassigned) [Compound 802], the IC50 on PRMT5 [1] is above 500 nM; on PRMT5 [2], above 500 nM; on PRMT5 [3], above 500 nM; in assay [4], above 1000 nM; in assay [5], above 1000 nM; in assay [6], above 10000 nM. The MTAP intact/deleted ratio entry in assay [5] is on record as “B (an IC50 ratio greater than or equal to 3 fold but lower than 10 fold)”.

For `C[C@@H]1CC[C@@H](c2ccc3[nH]c(=O)ccc3c2)N(C(=O)C(=O)Nc2cncc(C(N)=O)c2)C1` (single isomer, unassigned) [Compound 804], the IC50 was above 500 nM at PRMT5 [1]; above 500 nM at PRMT5 [2]; above 500 nM at PRMT5 [3]; above 1000 nM in assay [4]; above 1000 nM in assay [5]; above 10000 nM in assay [6]. The MTAP intact/deleted ratio entry in assay [5] is recorded as “C (an IC50 ratio of less than 3 fold)”.

In the case of `COc1ncc(NC(=O)C(=O)N2C[C@@H](C)CC[C@@H]2c2ccc3[nH]cnc3c2)cc1C(N)=O` (single isomer, unassigned) [Compound 805], the IC50 on PRMT5 [1] was above 500 nM; at PRMT5 [2], above 500 nM; on PRMT5 [3], above 500 nM; in assay [4], above 1000 nM; in assay [5] it was 100 to 1000 nM; in assay [6], above 10000 nM. Besides, in assay [5], the MTAP intact/deleted ratio entry is listed as “A (an IC50 ratio greater than or equal to 10 fold)”.

Turning to `Cc1cc(NC(=O)C(=O)N2C[C@@H](C)CC[C@@H]2c2ccc(CO)cc2)cnc1N` (single isomer, unassigned) [Compound 806], the IC50 on PRMT5 [1] was 50 to 500 nM; on PRMT5 [2], below 50 nM; at PRMT5 [3], below 50 nM; in assay [4], 100 to 1000 nM; in assay [5], below 100 nM; in assay [6], below 1000 nM. Further, in assay [5], the MTAP intact/deleted ratio entry is listed as “A (an IC50 ratio greater than or equal to 10 fold)”.

As to `COc1ncc(NC(=O)C(=O)N2C[C@@H](C)CC[C@@H]2c2ccc3[nH]c(=O)ccc3c2)cc1C(N)=O` (single isomer, unassigned) [Compound 807], the IC50 on PRMT5 [1] is 50 to 500 nM; on PRMT5 [2], below 50 nM; on PRMT5 [3], below 50 nM; in assay [4], 100 to 1000 nM; in assay [5], below 100 nM; in assay [6], below 1000 nM. Further, in assay [5], the MTAP intact/deleted ratio entry is reported as “A (an IC50 ratio greater than or equal to 10 fold)”.

With `C[C@H]1CC[C@H](c2ccc3[nH]c(=O)ccc3c2)N(C(=O)C(=O)Nc2cncc(C(N)=O)c2)C1` (single isomer, unassigned) [Compound 809], the IC50 on PRMT5 [1] is 50 to 500 nM; on PRMT5 [2], below 50 nM; on PRMT5 [3] it was below 50 nM; in assay [4], above 1000 nM; in assay [5] it was 100 to 1000 nM; in assay [6] it was 1000 to 10000 nM. Also, the MTAP intact/deleted ratio entry in assay [5] was “A (an IC50 ratio greater than or equal to 10 fold)”.

As to `COc1ncc(NC(=O)C(=O)N2C[C@H](C)CC[C@H]2c2ccc3[nH]c(=O)ccc3c2)cc1C(N)=O` (single isomer, unassigned) [Compound 810], the IC50 at PRMT5 [1] is above 500 nM; on PRMT5 [2], above 500 nM; on PRMT5 [3], above 500 nM; in assay [4] it was above 1000 nM; in assay [5], above 1000 nM; in assay [6] it was above 10000 nM. Also, the MTAP intact/deleted ratio result in assay [5] is listed as “B (an IC50 ratio greater than or equal to 3 fold but lower than 10 fold)”.

With `COc1ncc(NC(=O)C(=O)N2C[C@@H](C)CC[C@@H]2c2ccc(-c3nccs3)cc2)cc1C(N)=O` (single isomer, unassigned) [Compound 811], the IC50 at PRMT5 [1] is 50 to 500 nM; at PRMT5 [2], 50 to 500 nM; on PRMT5 [3], below 50 nM; in assay [4], above 1000 nM; in assay [5], 100 to 1000 nM; in assay [6], 1000 to 10000 nM. In addition, the MTAP intact/deleted ratio result in assay [5] is “A (an IC50 ratio greater than or equal to 10 fold)”.

On to `CCc1cc(NC(=O)C(=O)N2C[C@H](C)CC[C@H]2c2ccc(-c3nccs3)cc2)cnc1N` (single isomer, unassigned) [Compound 813], for which the IC50 on PRMT5 [1] was 50 to 500 nM; on PRMT5 [2], 50 to 500 nM; on PRMT5 [3] it was below 50 nM; in assay [4], above 1000 nM; in assay [5], 100 to 1000 nM; in assay [6], below 1000 nM. Further, the MTAP intact/deleted ratio result in assay [5] was “A (an IC50 ratio greater than or equal to 10 fold)”.
